The source of these data is PMC3746205, “Two mixed-NH3/amine platinum (II) anticancer complexes featuring a dichloroacetate moiety in the leaving group” (Scientific Reports, 2013).

For data set [1], the system named is cisplatin-resistant SK-OV-3 cells (SK-OV-3/DDP). Briefly: MTS cytotoxicity assay, cisplatin-resistant SK-OV-3/DDP. Type of data set: cell-based, human. The settings on record: for IC50: SK-OV-3/DDP cisplatin-resistant, MTS, t = 48 h, n = 3, read-out: IC50 (mean ± SD); for Resistance Index: ratio of IC50 value of resistant cells (SK-OV-3/DDP) to that of sensitive cells (SK-OV-3). Here is the method:
Cross-resistance profile of the complexes 1a and 2a was evaluated. Resistance Index was defined as the ratio of IC50 value of resistant cells to that of sensitive cells. SK-OV-3 and cisplatin-resistant SK-OV-3 cells (SK-OV-3/DDP) cell lines were chosen for MTS assay because drug resistance frequently occurred in the chemotherapy of ovarian tumors. […] The results may be attributed to the synergistic effect between the platinum pharmacophores and DCA released by the hydrolysis of 1a and 2a in the cells.
(§1) Human lung cancer (A549), human normal lung epithelial cell line (BEAS-2B), human stomach cancer (SGC-7901) and human ovarian cancer (SK-OV-3) were purchased from ATCC, whereas cisplatin-resistant SK-OV-3 cells (SK-OV-3/DDP) were kindly provided by Chinese Academy of Medical Sciences (Beijing, China). Cells were grown in DMEM or RPMI-1640 medium (Hyclone, USA) containing 10% fetal bovine serum. Both media were supplemented with 100 units/ml of penicillin and 100 μg/ml of streptomycin. Cells were maintained at 37°C in a humidified incubator with an atmosphere of 5% CO2.
(§2) Cytotoxicity was determined by performing MTS assay. Briefly, 100 μl of cells suspension were seeded in 96-well cell culture plates and allowed to adhere overnight. The cells were treated with drugs for 48 hours, and then 20 μl of CellTiter 96® AQueous One Solution Reagent (Promega, Madison, USA) was added and the cells were further incubated at 37°C for 1–2 h. Cell viability was measured by reading the absorbance at a wavelength of 490 nm. Concentrations of 50% inhibition of growth (IC50) were calculated on the basis of the relative survival curve.
In general terms: Formazan colour is commonly taken as a measure of viable cells.

For data set [2], the system named is SK-OV-3 cells (ovarian carcinoma). Briefly: MTS cytotoxicity assay, SK-OV-3. Type of data set: cell-based, human. The settings on record: read-out: IC50 (mean ± SD). Here is the method: as §1, §2
Data set [3] has as its system A549 cells (non-small cell lung carcinoma). As to the kind of experiment: MTS cytotoxicity assay, A549. Type of data set: cell-based, human. The conditions noted are these: read-out: IC50 (mean ± SD). Here is the method: as §1, §2
In data set [4] the test system is BEAS-2B normal human lung bronchial epithelial cells. As to the kind of experiment: Cell apoptosis assay (Annexin-V-FITC/Propidium iodide, flow cytometry), BEAS-2B. Type of data set: cell-based. The settings on record: t = 24 h, n = 3. How it is done:
(§3) Human lung cancer (A549), human normal lung epithelial cell line (BEAS-2B), human stomach cancer (SGC-7901) and human ovarian cancer (SK-OV-3) were purchased from ATCC, whereas cisplatin-resistant SK-OV-3 cells (SK-OV-3/DDP) were kindly provided by Chinese Academy of Medical Sciences (Beijing, China). Cells were grown in DMEM or RPMI-1640 medium (Hyclone, USA) containing 10% fetal bovine serum. Both media were supplemented with 100 units/ml of penicillin and 100 μg/ml of streptomycin. Cells were maintained at 37°C in a humidified incubator with an atmosphere of 5% CO2. To analyze the cells for apoptosis, cells were plated and allowed to adhere overnight. Cells were treated with drugs indicated for 24 hours and then analyzed for apoptosis using Annexin-V-FITC/Propidium iodide staining. Cells were trypsinized, pelleted, washed in PBS, and resuspended in 1×binding buffer containing Annexin-V-FITC and propidium iodide (BD Pharmingen) according to the manufacturer's instructions. The samples were analyzed for the apoptosis using a FACSCalibur flow cytometer (BD Biosciences, Franklin Lakes, NJ).
On the technique in general: A flow cytometer gives signals particle by particle.

A further data set has as its system A549 cells. As to the kind of experiment: Cell apoptosis assay (Annexin-V-FITC/Propidium iodide, flow cytometry), A549. The format is cell-based, human. The settings on record: t = 24 h, n = 3. Here is the method: as §3
The next data set can be described thus: Hydrolysis rate by HPLC. The settings on record: 1:10 (v/v) solution of water and methanol, within 4 hours. Type of data set: physicochemical. How it is done: Both complexes were nearly insoluble in water or ethanol (≈0.1 mg/ml) and slightly soluble in methanol and DMSO, but soluble in polyethyleneglycol 400 which was chosen as the solvent to make the stock solutions of the complexes for the following biological testing. The hydrolysis rate of the complexes in 1:10 (v/v) solution of water and methanol determined by HPLC was less than 2% within 4 hours and the hydrolysis products were, as expected, dichloroacetate and 1b for complex 1a, or 2b for complex 2a. Complexes 1b and 2b were also synthesized for comparison in HPLC measurements as well as in biological tests. As 1b and 2b were found very soluble in water (>25 mg/ml) compared with 1a or 2a, another synthetic reaction was employed to produce the desired complexes. Accordingly complexes 1b and 2b also have two positional isomeric forms. All the complexes used in our studies were, in fact, a mixture of two isomeric forms.
An Agilent Zorbax SB-C18 column (4.6 × 250 mm, 5 μm) was used with CH3OH/H2O as the mobile phase. The flow rate was 1.0 ml/min, and the column temperature is 40°C. The detection wavelength was 238 nm and the injection volume was 10 μl.

The subject of data set [5] is SGC-7901 cells (gastric carcinoma). Briefly: MTS cytotoxicity assay, SGC-7901. Type of data set: cell-based, human. The conditions noted are these: read-out: IC50 (mean ± SD). How it is done:
as §1, §2

The test system of data set [6] is BEAS-2B normal lung epithelial cells. Briefly: MTS cytotoxicity assay, BEAS-2B. The conditions noted are these: read-out: IC50 (mean ± SD). The format is cell-based, human. How it is done:
as §1, §2

The next data set in a line: Solubility in solvents. The format is physicochemical.
Setting [7] is: SK-OV-3 (sensitive), MTS, t = 48 h, n = 3, Table 3 cross-resistance experiment.
Where [8] appears, read: SK-OV-3, MTS, t = 48 h, n = 3, Table 1.
The mark [9] stands for this setting: BEAS-2B normal cells, MTS, t = 48 h, n = 3.

Several values for one entry are separate records, joined by “and”; a condition that tells them apart may be missing. Identical values can stand only once. Like-named read-outs stand apart in the source and are kept apart here. Some results are limits rather than exact numbers.

Consider `N.NC1CCCC1.O=C(OC1CC2(C1)C(=O)[O][Pt][O]C2=O)C(Cl)Cl` [Complex 1a], for which the IC50 worked out at 18.1 ± 2.41 µM in data set [1]; 17.8 ± 3.97 µM in data set [2] (setting [7]); 18.1 ± 0.85 µM in [2] (setting [8]); 17.1 ± 1.55 µM in data set [3] (A549, MTS, t = 48 h, n = 3); 21.9 ± 1.96 µM in [5] (SGC-7901, MTS, t = 48 h, n = 3); 61.5 ± 1.5 µM in data set [6] (setting [9]). For the same compound, in data set [1], the “Resistance Index” value is “≈1”. The “Apoptosis, % (mean ± SD)” value is 0.71 ± 0.45% in [4] (12.5 μM); 1.24 ± 1.73% in [4] (25 μM); 1.27 ± 0.92% in [4] (50 μM); 2.88% and 2.88 ± 2.15% in data set [4] (100 μM); 18.93% and 18.93 ± 3.83% in the data set on A549 cells (A549, 12.5 μM); 26.76 ± 2.33% in the data set with A549 cells (A549, 25 μM). Moreover, the “Apoptosis, % (mean ± SD)” value in the data set on A549 cells (A549, 50 μM) is reported as 40.93 ± 9.66%; with A549 cells (A549, 100 μM), 67.46 ± 8.06%. Besides, in “Hydrolysis rate by HPLC”, the Hydrolysis rate result was “less than 2%”.

For `N.NC1CCCCC1.O=C(OC1CC2(C1)C(=O)[O][Pt][O]C2=O)C(Cl)Cl` [Complex 2a], the IC50 came to 11.1 ± 0.63 µM in data set [1]; 10.1 ± 2.38 µM in data set [2] (setting [7]); 11.5 ± 0.91 µM in data set [2] (setting [8]); 15.3 ± 1.12 µM in data set [3] (A549, MTS, t = 48 h, n = 3); 16.7 ± 0.82 µM in data set [5] (SGC-7901, MTS, t = 48 h, n = 3); 52.1 ± 3.12 µM in data set [6] (setting [9]). Also, the “Resistance Index” value in [1] was “≈1”. Besides, the Hydrolysis rate result in “Hydrolysis rate by HPLC” is recorded as “less than 2%”.

With `N.N.[Cl][Pt][Cl]` [Cisplatin, cisplatin, reference compound], the IC50 was 19.2 ± 0.94 µM in [1]; 5.15 ± 1.38 µM in [2] (setting [7]); 5.04 ± 0.25 µM in data set [2] (setting [8]); 14.8 ± 1.02 µM in [3] (A549, MTS, t = 48 h, n = 3); 13.6 ± 1.03 µM in [5] (SGC-7901, MTS, t = 48 h, n = 3); 11.7 ± 0.51 µM in data set [6] (setting [9]). The “Resistance Index” value in data set [1] is “≈4”. Also, the “Apoptosis, % (mean ± SD)” value in [4] (12.5 μM) came out at 2.64 ± 1.43%; in data set [4] (25 μM) it was 5.86 ± 1.30%; in data set [4] (50 μM) it was 38.93 ± 5.26%; in data set [4] (100 μM), 42.80 ± 3.40%; in the data set on A549 cells (A549, 12.5 μM), 20.09 ± 3.06%; in the data set on A549 cells (A549, 25 μM), 32.84 ± 5.48%. Further, the “Apoptosis, % (mean ± SD)” value was determined as 50.51 ± 6.42% in the data set with A549 cells (A549, 50 μM) and 56.28 ± 6.91% in the data set with A549 cells (A549, 100 μM).

With `N.N.O=C([O-])C1(C(=O)[O-])CCC1.[Pt+2]` [Carboplatin, carboplatin, reference compound], the IC50 in data set [2] (setting [8]) is 65.3 ± 3.55 µM; in [3] (A549, MTS, t = 48 h, n = 3) it was 141 ± 11.3 µM; in [5] (SGC-7901, MTS, t = 48 h, n = 3), 127 ± 11.8 µM; in data set [6] (setting [9]) it was 74.4 ± 2.51 µM.

Consider `N.NC1CCCCC1.O=C1[O][Pt][O]C(=O)C12CC(O)C2` [Complex 2b], for which the IC50 in data set [2] (setting [8]) turned out to be 78.2 ± 1.85 µM; in data set [3] (A549, MTS, t = 48 h, n = 3), 71.5 ± 5.21 µM; in data set [5] (SGC-7901, MTS, t = 48 h, n = 3) it was 69.5 ± 2.31 µM; in [6] (setting [9]), 75 ± 4.83 µM. Moreover, in the data set “Solubility in solvents”, the Solubility in water is > 25 mg/mL.

Turning to `O=C(O)C(Cl)Cl` [DCA, Dichloroacetate], the half-maximal inhibitory concentration (IC50) in [2] (Homo sapiens, SK-OV-3, 48 h) was > 200 µM; in data set [3] (Homo sapiens, A549, 48 h), > 200 µM; in [5] (Homo sapiens, SGC-7901, 48 h) it was > 200 µM; in data set [6] (Homo sapiens, BEAS-2B, 48 h), > 200 µM.

In the case of `N.NC1CCCC1.O=C1[O][Pt][O]C(=O)C12CC(O)C2` [Complex 1b], the IC50 in data set [2] (setting [8]) was 74.2 ± 2.64 µM; in data set [3] (A549, MTS, t = 48 h, n = 3), 61.5 ± 7.98 µM; in [5] (SGC-7901, MTS, t = 48 h, n = 3), 56.2 ± 4.88 µM; in data set [6] (setting [9]), 79.9 ± 2.57 µM. In addition, in “Solubility in solvents”, the Solubility in water was > 25 mg/mL.

As a reminder, the IC50 is the midpoint of a concentration-inhibition curve.
